According to US12637434B2, “Salt of arylaminoquinazoline-containing compound, and preparation method therefor and use thereof” (priority 2020, dated 2026):
≈ marks a conversion by molar mass, not a printed value. Entries after “also recorded” stand apart in the source; their conditions may differ. Where two headings read alike, the source gives them in different places.

Key:
human melanoma A375 = experiment: Pharmacodynamic experiment of human melanoma A375 nude mice xenograft tumor model; format: in vivo, nu/nu female nude mice; conditions: for Animal number (Survival/total) / Tumor weight / Inhibition rate %: once a day, 20 days; for Tumor weight / Inhibition rate %: Day 21; for Inhibition rate %: tumor weight
Protocol: Pharmacodynamic Experiment of Human Melanoma A375 Nude Mice Xenograft Tumor Model
A well-growing human melanoma A375 cell suspension was inoculated into the subcutaneous tissue of the forelimb axilla of nu/nu female nude mice in an inoculation volume of 0.1 mL containing approximately 1×10^7 tumor cells. When the tumor volume grew to 100 mm^3 or more, the mice with good tumor growth were selected, and the animals were evenly divided into 5 groups according to the tumor volume: a Vehicle group, a Vandetanib 12.5 mg/kg group, a Vandetanib 25 mg/kg group, an Example 1 sample 12.5 mg/kg group, and an Example 1 sample 25 mg/kg group, and there were 6 animals in each group. The Vehicle group was orally administered with distilled water, and the remaining groups were orally administered with the corresponding tested drugs in a dosing volume of 20 mL/kg, once a day, and continuously administered for 20 days. The animals were housed normally after administration, and the anti-tumor effect of the tested drugs was dynamically observed by using the method of measuring the diameter of the tumors. At the end of the experiment (Day 21), the animals were sacrificed, and the tumors, were stripped and weighed, and the tumor inhibition rate was calculated.

Long-term stability test = format: physicochemical
Protocol: An appropriate amount of the salt samples obtained in Examples 1 to 4 and 9 were sealed with a polyethylene film and placed for 5 months under the conditions of 40±2° C. and 75%±5% RH, and a long-term test was carried out.

[1] = Solubility test in biological vehicles (FaSSIF, FeSSIF, SGF); format: physicochemical; conditions: for solubility at 0.5 h: 37 °C, thermodynamic from solid, 37° C., 200 rpm, target concentration 10 mg/mL, unit inferred
Protocol: 9. Determination of Solubility in Biological Vehicles
The preparation procedures of the biological vehicles (SGF, FeSSIF and FaSSIF) used for solubility determination were shown in the following table:
Test method: a sample to be tested was added to a biological vehicles and prepared into a solution or suspension having a target concentration of 10 mg/mL. The resulting solution or suspension was shaken continuously at 200 rpm at 37° C. The suspension was filtered at 0.5 hour and the concentration of the compound in the filtrate was determined by using HPLC.
Solubility Test in Biological Vehicles
The samples of Example 1 and Example 10 (20 mg each) were weighed, and different biological vehicles (2 mL) were added threreto to perform the solubility test, and the results were shown in Table 11.

[2] = Solubility test in conventional organic solvents; format: physicochemical
Protocol: Solubility Test in Conventional Organic Solvents
The solubility test of the sample of Preparation Example 1 in different organic solvents was carried out by using the method in the Pharmacopoeia (Volume II, the general examples), and the solubility of the sample of Example 1 in different organic solvents was estimated using the gravimetric method, and the results were shown in Table 15.

Solid stability test = format: physicochemical; conditions: 40° C./75% RH (open), 7 days
Protocol: The dihydrochloride salt of Example 1 and the dihydrochloride salt tetrahydrate of Example 2 and Example 10 were all placed under the condition of 40° C./75% RH (open) for 7 days to perform the stability test.

[3] = Solubility test in water and pH 2.0 buffer (HPLC); format: physicochemical
Protocol: 2. Solubility (Water and pH 2.0 Buffer)
Detection Instrument: Agilent 1260 High Performance Liquid Chromatograph
Detection medium: purified water, pH 2.0 phosphoric acid-disodium hydrogen phosphate buffer
Preparation of control solution: it was taken that an appropriate amount of the referen ce substance of the compound of Formula 1, accurately weighed, dissolved completely by solven t and diluted to 100 μg/mL. 10 μL of the prepared solution was accurately measured and the conte nts of Compound 1 were determined by HPLC.
The salts obtained in Preparation Example 1, Examples 1 to 4 and 9 and Comparative Examples 1 to 2 were tested for solubility in water and pH 2.0 buffer.

[4] = Slurrying in organic solvents, crystalline form by XRPD; format: physicochemical; conditions: ~15 mg in 0.5 mL of solvents of Table 15, room temperature and 50° C.
Protocol: Note: The sample of Example 1 (˜15 mg) was added to 0.5 mL of the different solvents listed in Table 15, and slurried at room temperature and 50° C., and the filtered sample was subjected to X-ray powder diffraction. The crystalline form was consistent with that of the dihydrochloride salt obtained in Example 1.

[5] = Mechanical stability test; format: physicochemical; conditions: mechanical grinding for 5 minutes
Protocol: Mechanical Stability Test
An appropriate amount of the dihydrochloride salt of Example 1 was subjected to mechanical grinding for 5 minutes, and X-ray powder diffraction was performed.

[6] = 40 ± 2° C., 75% ± 5% RH, 5 months, sealed with polyethylene film

**Q.** Which “Animal number (Survival/total)” value (human melanoma A375; 12.5 mg/kg oral) does the source give for `COc1cc2c(Nc3ccc(Br)cc3F)ncnc2cc1OCCCCN(C)C` [Example 1] here?
**A.** 6/6

**Q.** And the “Tumor weight” value (human melanoma A375; 12.5 mg/kg oral)?
**A.** 1.77 ± 0.85 g

**Q.** And the Inhibition rate % (human melanoma A375; 12.5 mg/kg oral)?
**A.** 47.99%

**Q.** What about the “Animal number (Survival/total)” value (human melanoma A375; 25 mg/kg oral) of the same compound?
**A.** 6/6

**Q.** And the “Tumor weight” value (human melanoma A375; 25 mg/kg oral)?
**A.** 1.34 ± 1.15 g

**Q.** And the Inhibition rate % (human melanoma A375; 25 mg/kg oral)?
**A.** 60.52%

**Q.** And the “effect on growth of tumors (in words)” value (human melanoma A375; 12.5 and 25 mg/kg oral, compared with the Vehicle group)?
**A.** significantly inhibit the growth of tumors

**Q.** What about the “Purity (5 months)” value (Long-term stability test; 40 ± 2° C., 75% ± 5% RH, 5 months) of the same compound?
**A.** 99.60%

**Q.** What about the Appearance (Long-term stability test; [6]) of the same compound?
**A.** White powder

**Q.** What about the Crystalline form (Long-term stability test; [6]) of the same compound?
**A.** Unchanged

**Q.** And the “Purity (0 month)” value (Long-term stability test; start of long-term stability test, 0 month)?
**A.** 99.62%

**Q.** And the solubility at 0.5 h ([1]; FaSSIF, pH 6.5, fassif, read-out: Solubility in FaSSIF (pH 6.5))?
**A.** > 10 mg/mL

**Q.** And the “solubility in biological vehicles with different pH (in words)” value ([1]; FaSSIF, FeSSIF, SGF)?
**A.** good solubility

**Q.** And the solubility at 0.5 h ([1]; FeSSIF, pH 5, fessif, read-out: Solubility in FeSSIF (pH 5.0))?
**A.** 5.07 mg/mL (≈ 10900 µM)

**Q.** What about the solubility at 0.5 h ([1]; SGF, pH 1.2, simulated gastric fluid, read-out: Solubility in SGF (pH 1.2)) of the same compound?
**A.** > 10 mg/mL

**Q.** And the “Solubility (mg/mL) in Acetone” value ([2]; Acetone, Preparation Example 1 by Pharmacopoeia method, Example 1 estimated by gravimetric method)?
**A.** <0.46 mg/mL

**Q.** What about the “Solubility (mg/mL) in Acetonitrile” value ([2]; Acetonitrile, Preparation Example 1 by Pharmacopoeia method, Example 1 estimated by gravimetric method) of the same compound?
**A.** <0.38 mg/mL

**Q.** And the “Solubility (mg/mL) in Dichloromethane” value ([2]; Dichloromethane, Preparation Example 1 by Pharmacopoeia method, Example 1 estimated by gravimetric method)?
**A.** <0.44 mg/mL

**Q.** And the “Solubility (mg/mL) in Ethanol” value ([2]; Ethanol, Preparation Example 1 by Pharmacopoeia method, Example 1 estimated by gravimetric method)?
**A.** ~0.55 mg/mL (≈ 1190 µM)

**Q.** And the “Solubility (mg/mL) in Ethyl acetate” value ([2]; Ethyl acetate, Preparation Example 1 by Pharmacopoeia method, Example 1 estimated by gravimetric method)?
**A.** <0.38 mg/mL

**Q.** What about the “Solubility (mg/mL) in Isopropanol” value ([2]; Isopropanol, Preparation Example 1 by Pharmacopoeia method, Example 1 estimated by gravimetric method) of the same compound?
**A.** <0.40 mg/mL

**Q.** What about the “Solubility (mg/mL) in Tetrahydrofuran” value ([2]; Tetrahydrofuran, Preparation Example 1 by Pharmacopoeia method, Example 1 estimated by gravimetric method) of the same compound?
**A.** <0.37 mg/mL

**Q.** And the “solubility in the other seven commonly used organic solvents (in words)” value ([2]; all solvents of Table 15 except methanol)?
**A.** very poor solubility

**Q.** And the Crystalline form (Solid stability test)?
**A.** Unchanged

**Q.** What about the Purity (Solid stability test) of the same compound?
**A.** 99.64%

**Q.** What about the “Solubility (25° C., mg/mL) Medium: pH 2.0 buffer” value ([3]; 25° C., pH 2.0 phosphoric acid-disodium hydrogen phosphate buffer) of the same compound?
**A.** 14.29 mg/mL

**Q.** And the “Solubility (25° C., mg/mL) Medium: Water” value ([3]; 25° C., purified water)?
**A.** 40.07 mg/mL (≈ 86500 µM)

**Q.** What about the “solubility in pH 2.0 buffer compared with Preparation Example 1 (in words)” value ([3]; pH 2.0 buffer, acidic conditions) of the same compound?
**A.** slightly better

**Q.** And the “water-solubility (in words)” value ([3]; water, listed as dihydrochloride salt)?
**A.** best of all samples

**Q.** And the “crystalline form after slurrying in conventional organic solvents (XRPD)” value [4]?
**A.** consistent; also recorded: stable

**Q.** What about the “crystalline form after mechanical grinding (XRPD)” value [5] of the same compound?
**A.** not changed
